Columns and labels:
[1] = system: rat Cyp1A1 promoter (Cyp1A1-SEAP reporter pCW2) in Hepa-C1C7 cells; assay: 3MC induced Cyp1A1-SEAP vector (pCW2) expression in transfected cells, SEAP activity in medium; type: cell-based; details: 48 hours after induction
Method: The sequence coding for 55.5 kD secreted alkaline phosphatase (SEAP), a truncated form of placental alkaline phosphatase enzyme that lacks the GPI anchor, was excised from pSEAP2-Basic (Clonetech) by first converting a BsmI restriction site by removing 3′-overhanging sequences and addition of BglII linker, then excision with BglII.
Hepa-C1C7 cells (cultured in DMEM supplemented with 10% FCS, 2 mM 1-glutamine, at 5% CO2) were transfected with pCW2 either transiently or stably (in conjunction with pSVNeo) using the calcium phosphate co-precipitation method. Briefly, 5 μg of plasmid (+1 μg pSVNeo for stable transfections) was mixed with calcium chloride and HEPES buffered saline to form a calcium phosphate-DNA precipitate which was left incubating with the cells for 5 hours. The medium was then replaced with fresh growth medium or with selection medium (growth medium supplemented with 400 μg/ml G418, for stable transfections). Transiently transfected cells were plated into 6 well plates and were incubated with increasing doses of 3MC dissolved in culture medium. For stable transfections, once individual colonies could be identified on the plates the colonies were pooled and incubated with 2 μg/ml 3MC. Forty eight hours after induction with 3MC the medium was assayed for SEAP activity.
SEAP activity was determined using the “SEAP reporter Gene Assay, chemiluminescent” (Roche). […]

[2] = system: Cyp1A1-SEAP transgene (rat Cyp1A1 promoter); assay: 3MC induced Cyp1A1-SEAP vector expression in transgenic mice, SEAP activity in urine and blood
Method: 3MC was administered to female and male mice (of at least 8 weeks of age) as a suspension in Mazola brand corn oil by i.p. injection. Test animals were either transgenic or non-transgenic age-matched animals with the same genotype were i.p. injected once every 24 hours with either 40 mg/kg or 0.4 mg/kg body weight 3-methylcholanthrene (3MC) in maize oil for three consecutive injections. Control animals were injected with an equal volume of carrier corn oil only. All animals were killed by cervical dislocation 24 hours following the final dose.
Samples of the liver and kidney were removed, washed once in phosphate buffered saline and then homogenised in HB buffer (140 mM NaCl, 50 mM Tris-HCl pH 7.5, 1 mM EDTA, 1% w/v Triton X-100) using a dounce glass homogeniser until a smooth solution was formed. Insoluble proteins were removed by centrifugation at 13000 rpm for 5 minutes and the cleared supernatant was assayed for protein content using the Pierce protein determination kit. For each tissue a final concentration of 0.8 mg/ml was used in the SEAP assay.
Urine and blood samples were centrifuged at 5000 rpm for 5 minutes to remove any solid waste (from the urine) or coagulated cells (from the blood) and were assayed for SEAP activity immediately. Urine was used undiluted in the assay, whereas blood samples were diluted 1:100 and 1:500 with distilled water prior to the SEAP assay. SEAP activity was assayed as described in example 2.

[3] = system: SFN-hCG(myc) reporter transgene (stratifin promoter) in PC3 xenograft tumours; assay: Induced SFN-hCG(myc) transgene expression from xenografted PC3 cell line in vivo, urinary hCG(myc) by sandwich ELISA; design: species or system nude mice; details: single i.p. camptothecin 15 mg/kg; urine 24 hours after administration; versus vehicle only; FIG. 7
Method: The SFN-hCG(myc)-Amp reporter construct generated as described under example 5, was transfected into PC3 cells on 6-well tissue culture plates using FuGene reagent (Roche, Lewes, East Sussex). Construct DNA (equivalent to 1 μg/well) was added to FuGene reagent (3 μl/well) and made up to 100 μl/well with serum free medium. The medium in which the cells were growing was aspirated off and replaced with 100 μl of the above mixture per well. After 24 hours the cells were trypsinised and transferred to 10 cm tissue culture dishes (one well of a six well plate per 10 cm dish). The cells were allowed to grow on these dishes for 7 days prior to selection. […]
The study consisted of 4 groups in total, each containing 4 animals. […] Tumour growth was measured twice-weekly following cell implantation until tumours reached 2-5 mm in diameter. Tumour volume (V) was calculated using the formula: V= 4/3π((d1+d2)/4)^3, where d=mean diameter (n=2)
Treatment began 5 weeks after tumour implantation. […] Quantities of bound HRP were then determined by reaction with tetramethylbenzidine (TMB) and absorbance measurement at 450 nm. No hCG(myc) was detected in the urine of mice carrying xenograft tumours resulting from injection of wild-type PC3 cells. However, hCG(myc) was detected in the urine of mice carrying xenograft tumours resulting from injection of PC3 cells transfected with the SFN-hCG(myc) reporter construct.

Structure (SMILES): Cc1ccc2cc3c(ccc4ccccc43)c3c2c1CC3 [3MC, 3-methylcholanthrene]
- SEAP activity in medium (3MC induction of pCW2) ([1]; pCW2 stably-transfected into Hepa1 cells, 2 μg/ml 3MC, FIG. 3): induction
- SEAP activity in medium (3MC induction of pCW2) ([1]; pCW2 transiently-transfected into Hepa1 cells, increasing doses of 3MC, FIG. 2): induction
- SEAP in urine of CYS31 transgenic mice ([2]; 0.4 mg/kg 3MC i.p., FIG. 6): appearance of SEAP in urine
- Cyp1a1-SEAP activity detected in urine and blood ([2]; 40 mg/kg 3MC i.p. once every 24 hours, three injections, 3 out of 4 founder transgenic mice analysed (CYS48, CYS50, CYS31, CYS74), FIG. 4): induction
- SEAP activity detected in the urine of transgenic mice ([2]; 3MC i.p., FIG. 5): induced SEAP activity

Structure (SMILES): CC[C@@]1(O)C(=O)OCc2c1cc1n(c2=O)Cc2cc3ccccc3nc2-1 [camptothecin]
- urinary hCG(myc) concentration (absorbance at 450 nm) [3]: increased urinary hCG(myc)

From patent publication US20070217999A1, “Excretable Reporter Systems” (Roslin Institute (Edinburgh), priority 2003, published 2007)
